# Results published in patent US20210015793A1, “COMPOUNDS FOR TREATING CNS- AND NEURODEGENERATIVE DISEASES” (ETH ZURICH, priority 2018, published 2021).
# “Also recorded” adds a separate entry of the source.
# How the values were obtained:
# Type in all cases: in vivo, mouse
# [1] = tested on: Tg2576 AD mice; test: SDS-insoluble hippocampal Abeta1-40 and Abeta1-42 by sandwich ELISA in Tg2576 mice; conditions: 18 months-old Tg2576 mice, 6 months of treatment, 8 mg/kg/d in drinking water
# Protocol: (§1) For quantitative analysis of SDS-insoluble hippocampal contents of Abeta1-40 and Abeta1-42, hippocampi were dissected out from brains isolated on ice from 18-month-old Tg2576 mice without and with treatment for 6 months with Compound-1 and Compound-4. Isolated hippocampi were pulverized under liquid nitrogen, and SDS-insoluble Abeta peptides were extracted by serial extraction in 14 microL/mg wet weight of Tris buffer (50 mM Tris, 200 nM NaCl, 2 mM EDTA, pH 7.2, supplemented with 1× protease inhibitors/1× phosphatase inhibitors), followed by extraction with Triton X-100-containing buffer (Tris extraction buffer with 0.1% Triton X-100), and followed by extraction with 2% SDS. The remaining pellet was extracted with formic acid (70% formic acid in Tris buffer supplemented with 1× protease inhibitors/1× phosphatase inhibitors). The resulting formic-acid extract was neutralized with 1 M Tris buffer, pH 11, and used for quantitative determination of Abeta1-40 and Abeta1-42 by sandwich ELISA relative to a standard curve according to the protocol of the manufacturer (KHB3481 and KHB3441, Thermo Fisher Scientific, Waltham, Mass., USA).
# as §1, with “mM” for “nM”, “and with” for “relative to”
# [2] = tested on: male B6 mice; test: Aging-induced deterioration of male sperm quality in B6 mice; conditions: 18-month-old male B6 mice, 15 months treatment
# [3] = tested on: Tg2576 AD mice; test: Hippocampal hyperphosphorylated PHF tau by direct binding assay with [125I]-labeled AT8 antibody, Tg2576 mice subjected to CUMS; conditions: 15-month-old Tg2576 mice, 3 months of CUMS with treatment, vs untreated stressed controls
# From the text: For a genetic model of familial AD (FAD), Tg2576 mice (Taconic Biosciences, Rensselaer, N.Y., USA) were used with neuron-specific overexpression of human APPSwe, i.e the Swedish mutation of APP695 isolated from a Swedish family with FAD featuring the double mutation K670N/M671L (Hsiao et al., Science 274, 99-103 (1996)). As a genetic model of tauopathy, the Tg-TauP301L mice (Model 2508, Taconic Biosciences, Rensselaer, N.Y., USA) with neuron-specific expression of the most common FTDP-17 (frontotemporal dementia and parkinsonism linked to chromosome 17) mutation (Lewis et al., Nature Genetics 25, 402-405 (2000)) were used. […]
# Neuronal cell loss and hyperphosphorylated PHF Tau were determined in hippocampi of 15 months-old Tg2576 mice, which were treated without or with Compound-1 and Compound-4 for three months during the neurodegeneration-enhancing CUMS (chronic unpredictable mild stress) protocol. Neuronal cell loss was determined with crude homogenates of dissected hippocampi by direct binding assay with the neuron-specific [125]-labeled anti-NeuN antibody (MAB377, clone A60, EMD Millipore, Merck KGaA, Darmstadt, Germany). Similarly, the neuronal cell loss-causing PHF tau hyperphosphorylation was quantified with [125]-labeled AT8 antibody. […]
SMILES,hippocampal content of Abeta1-40 [1],hippocampal content of Abeta1-42 [1],aging-induced epididymal degeneration (H&E sections of cauda epididymis) [2],hippocampal content of hyperphosphorylated PHF Tau (AT8 binding) [3]
"O=C(C1=C(O)C(c2ccccc2)N(c2ccc3c(c2)OCO3)C1=O)C1CC1 (centres unmarked) [Compound-1, 1-(1,3-benzodioxol-5-yl)-4-(cyclopropane-carbonyl)-3-hydroxy-2-phenyl-2H-pyrrol-5-one]",significantly decreased,significantly decreased,prevented,retarded; also recorded: significantly decreased hippocampal content of hyperphosphorylated PHF Tau
"O=C(C1=C(O)C(c2ccc(F)cc2)N(c2ccc3c(c2)OCO3)C1=O)C1CC1 (centres unmarked) [Compound-1F, 1-(1,3-Benzodioxol-5-yl)-4-(cyclopropanecarbonyl)-2-(4-fluorophenyl)-3-hydroxy-2H-pyrrol-5-one]",significantly decreased,significantly decreased,prevented,retarded
